From patent US6673843B2 (Emory University, priority 1999, dated 2004)
“Also recorded” adds a separate entry of the source.

Columns and labels:
[1] = tested on: quinone reductase [NAD(P)H:(quinone-acceptor) oxidoreductase, EC1.6.99.2] in murine Hepac1c7 cells; experiment: Phase II enzyme induction (quinone reductase); assay type: cell-based; conditions: for PHASE II INDUCTION CD (concentration to double the measured specific activity): quinone reductase, murine Hepac1c7 cells
Excerpt: Several plant-derived compounds with anticancer and chemopreventive activities also show the ability to induce phase II detoxifying enzymes, including quinone reductase.

[2] = tested on: bFGF-induced corneal neovascularization; experiment: Corneal neovascularization, bFGF pellet in mouse cornea; assay type: in vivo, C57BL6 male mice; conditions: for ANTI-ANGIOGENIC EFFECT Vessel Length / ANTI-ANGIOGENIC EFFECT Sector Size: pellet with 80 ng bFGF and 44 μg compound, mouse cornea; for ANTI-ANGIOGENIC EFFECT Sector Size: footnote: units of 1/12 of a circle (clock hours)
Method: C57BL6 male mice (5-6 weeks old) were anesthetized with methoxyflurane prior to implantation of pellets and with 0.5% proparacaine. A central, intrastromal linear keratotomy was performed with a surgical blade, and a lamellar micropocket was prepared according to the method of Kenyon, et al. (1996). The pellet was advanced to the end of the pocket. Erythromycin ointment was placed on the operated eye to prevent infection. Eyes were examined by slit lamp on days 3-6 after implantation under general anesthesia. Corneal angiogenesis was assayed through two measurements.
Vessel length is the length of the vessel from the corneal limbus as it grows toward the pellet containing bFGF.
Sector size is a measurement of neovascularized area of the cornea. The cornea is viewed as a circle that can be divided into twelve sectors of 30 degrees span each, analogous to the division of a clock face into twelve hours. Thus, neovascularization of a sector corresponding to one fourth of the cornea would be recorded as a sector size measurement of three. This system of measurement, recording sector sizes as “clock hours”, was established by Kenyon et al., Invest. Ophthalmol. 37:1625-1632 (1996).
Pellets were prepared according to a modification of the method of Kenyon, et al. Invest. Opthalmol. Vis. Sci. 37:1625-1632 (1996). […] Once the mixture was dry, the mesh was manually dissociated to yield 225 pellets. […] The approximate pore size was 0.4×0.4 mm. Both sides of the mesh were covered with a thin layer of hydron.
Neovascularization was assessed by slit lamp at 5 days after implantation, and the corneas were photographed.

[3] = tested on: Bovine capillary endothelial cells; experiment: Endothelial proliferation assay, primary endothelial cells; assay type: cell-based; conditions: 72 hours
Method: Bovine capillary endothelial cells were isolated according to the method of Folkman, et al., Proc. Nat. Acad. Sci. U.S.A. 76:5217-5221 (1979), and were plated at a concentration of 10,000 cells/well in gelatinized 24-well dishes. The primary endothelial cells were cultured in Dulbecco's modified Eagle's medium (DMEM) supplemented with 10% bovine serum and grown at 37° C. in 10% CO2. Twenty-four hours after plating, cells were treated with curcumin in the presence or absence of bFGF. After 72 hours of treatment, cells were counted using a Coulter counter. Cell counts for each condition were repeated in triplicate and in the presence or absence of 1 ng/ml bFGF. Endothelial cells were stimulated to proliferate in the presence of 1 ng/ml bFGF.

VEGF mRNA = experiment: Production of VEGF mRNA in HaCaT keratinocytes (RNAse protection); assay type: cell-based, human; conditions: TPA 5 ng/ml, three hours, HaCaT cells
Method: HaCaT keratinocytes were grown in (DMEM) (JRH) supplemented with 5% FCS (Hyclone, Logan, UT) in 25 cm^2 flasks. […] TPA was added to a final concentration of 5 ng/ml and cells were incubated for three hours at 37° C. and harvested, and their RNA was extracted with guanidinium thiocyanate/phenol.
A plasmid containing the coding region of human vascular endothelial growth factor (VEGF) 121 was obtained from H. Welch (University of Freiburg, Germany), and used to generate P^32-labeled antisense riboprobe as per manufacturers protocols (Ambion, Austin, Tex.). RNAse protection assays were performed according to the method of Hod, Biotechniques 13:852-853 (1992). Protected fragments were separated on gels of 5% acrylamide, 8 M urea, 1× Tris-borate buffer, and quantified with a phosphorimager (Molecular Dynamics, Sunnyvale, Calif.). An 18S riboprobe was included in each sample to normalize for variations in loading and recovery of RNA.
HaCaT cells are derived from spontaneously transformed human keratinocytes.

induced tumors = conditions: oral administration, skin and colon chemical carcinogens; cited from earlier work
[4] = tested on: MSI (ATCC CCRL 2279) endothelial cells; experiment: Endothelial proliferation assay, SV40 large T antigen immortalized endothelial cells; assay type: cell-based, murine; conditions: 72-hour exposure
Method: Similarly, MSI (ATCC CCRL 2279) endothelial cells, which are a SV40 large T antigen immortalized murine endothelial cell line, were also plated at a concentration of 10,000 cells/well in nongelatinized 24-well dishes.

[5] = tested on: omithine decarboxylase induction and promotion of mouse skin; conditions: oral administration; Huang et al. 1995; cited from earlier work
[6] = tested on: human umbilical vein endothelial cells (HUVEC); conditions: independent of bFGF stimulation; Singh et al. 1996; cited from earlier work
[7] = pellet with 80 ng bFGF plus compound

SMILES	PHASE II INDUCTION CD (concentration to double the measured specific activity) [1] [µM]	ANTI-ANGIOGENIC EFFECT Vessel Length [2] [mm.]	ANTI-ANGIOGENIC EFFECT Sector Size [2] [clock hours]	further results
O=C(/C=C/c1ccc(O)cc1)CC(=O)/C=C/c1ccc(O)cc1 [Bisdemethoxycurcumin, bisdemethoxycurcumin]	11.0	0.88	1.7	
COc1cc(/C=C/C(=O)CC(=O)/C=C/c2ccc(O)c(OC)c2)ccc1O [Curcumin]	7.3	0.59	1.17	cell number (proliferation) after treatment ([3]; 10 μM, presence or absence of 1 ng/ml bFGF): steep decrease in cell number; cytotoxicity to endothelial cells ([3]; 0.5 to 10 μM): No evidence of cytotoxicity; inhibition of TPA-caused increase in VEGF mRNA (VEGF mRNA; 10 μM curcumin): not inhibited; also recorded: lack of inhibition; incidence and size of induced tumors compared with control mice (induced tumors): decreased incidence and size; growth of endothelial cells immortalized by SV40 large T antigen [4]: able to inhibit the growth; inhibition of phorbol ester-stimulated ornithine decarboxylase induction and promotion of DMBA-initiated mouse skin [5]: able to inhibit; sector size (in words) [2, 7]: significantly reduced; vessel length (in words) [2, 7]: significantly reduced; in vitro proliferation of HUVEC [6]: inhibits
COc1cc(/C=C/C(O)=C/C(=O)/C=C/c2ccc(O)cc2)ccc1O [Demethoxycurcumin, demethoxycurcumin]	9.0	0.26	0.71	
CCCCCCCCCCCCCC(=O)O[C@@H]1[C@@H](C)[C@@]2(O)[C@@H](C=C(CO)C[C@]3(O)C(=O)C(C)=C[C@@H]23)[C@@H]2C(C)(C)[C@]12OC(C)=O [TPA, 12-O-tetradecanoylphorbol-13-acetate, reference compound]				increase in VEGF mRNA (VEGF mRNA): 2.5 fold
O=C1C(c2ccccc2)=C(c2ccccc2)C(c2ccccc2)=C1c1ccccc1 [TPCPD, tetraphenylcyclopentadienone, reference compound]	4.8	1.16	3.72	bFGF-induced corneal neovascularization (in words) [2, 7]: no anti-angiogenic activity; also recorded: no difference in neovascularization; bFGF-induced corneal neovascularization (in words) ([2]; pellet with 80 ng bFGF plus compound, listed as tetraphenylcyclopentadienone (TPCPD)): no effect
COc1cc(CCC(=O)CC(=O)CCc2ccc(O)c(OC)c2)ccc1O [Tetrahydrocurcumin, tetrahydrocurcumin]	>25	0.74	2.43	induction of quinone reductase activity ([1]; highest concentration tested, 25 μM): 1.6 fold
